Assay results reported in patent US7846937B2, “Cyclopropanecarboxylate esters of acyclovir” (Eli Lilly and Company, priority 2005, dated 2010).
Where two headings read alike, the source gives them in different places.

Experiment: Hydrolytic stability in buffered aqueous solutions (HPLC)
Assay type: physicochemical
Details: 40° C., read-out: t1/2 (hr) at 40° C. (converted)
Experimental: Hydrolytic stability of valacyclovir and 1-amino-cyclopropanecarboxylic acid 2-(2-amino-6-oxo-1,6-dihydro-purin-9-ylmethoxy)-ethyl ester trifluoroacetic acid salt
Test samples of valacyclovir and 1-amino-cyclopropanecarboxylic acid 2-(2-amino-6-oxo-1,6-dihydro-purin-9-ylmethoxy)-ethyl ester trifluoroacetic acid salt (Example 1) are dissolved in buffered solutions of known pH at a concentration of 100 mcg/mL. Compound samples are prepared in 0.1 N hydrochloric acid for pH 1 and phosphate based buffer for pH2, 4, 6, 8 and 10. Stability is conveniently assessed using a semi-automated HPLC technique. Compound samples are loaded onto an HPLC autosampler incubated at 40° C. Samples are repeatedly injected on the HPLC at specific time intervals. The peak area of the compound samples are monitored by UV detection.
The HPLC system consisted of an Agilent® 1100 autoinjector, pump, degasser and LV detector. A Waters® Atlantis dC-18 column (3 micron, 150×4.6 mm I.D.) is used to separate the degradation products from the compound sample. An isocratic reversed-phase system using ultraviolet detection is used to monitor the peak areas of the compound sample over a 24 hour period. The mobile phase composition is 5% acetonitrile and 95% water with 0.1% trifluoroacetic acid added to the mixture. The flow rate is 1.5 mL/min. The column temperature is 30 degrees Celsius and the injection volume was 10 μL. The UV detector is set at 256 nm and the run time was 9 minutes. Time points are analyzed every 2 hours for each buffer while being incubated at 40 degrees Celsius by the thermostat controlled autosampler.
The peak area of the compound sample is monitored over a 24 hour period at 2 hour intervals. The peak area of the compound sample is plotted versus time for each of the buffers tested. A first order calculation is used to determine the rate constant for each buffer based on the loss of peak area over time. The half-life, in hours, is calculated by dividing 0.693 by the rate constant (k). t1/2 (hr)=0.693/k.

[1] = pH = 1, 0.1 N hydrochloric acid
[2] = pH = 10, phosphate based buffer

Row | Compound | half-life at 100 mcg/mL [1] | half-life at 100 mcg/mL (pH = 2, phosphate based buffer) | half-life at 100 mcg/mL (pH = 4, phosphate based buffer) | half-life at 100 mcg/mL (pH = 6, phosphate based buffer) | half-life at 100 mcg/mL (pH = 8, phosphate based buffer) | half-life at 100 mcg/mL [2]
1 | Nc1nc2c(ncn2COCCOC(=O)C2(N)CC2)c(=O)[nH]1.O=C(O)C(F)(F)F [Example 1, 1-amino-cyclopropanecarboxylic acid 2-(2-amino-6-oxo-1,6-dihydro-purin-9-ylmethoxy)-ethyl ester trifluoroacetic acid salt] | > 300 h | > 300 h | > 300 h | > 300 h | 90.1 h | 23.8 h
2 | CC(C)[C@H](N)C(=O)OCCOCn1cnc2c(=O)[nH]c(N)nc21 [valacyclovir, 2(2-amino-1,6-didydro-6-oxo-9H(purin-9-yl)methoxy)ethyl L-valinate] | > 300 h | > 300 h | > 300 h | 69.7 h | 7.8 h | 6.8 h
